Reference: PMC4519045 (PLoS ONE, 2015)
Entries after “also recorded” stand apart in the source; their conditions may differ.

Key:
[1] = in vivo circulation; cited from earlier work
[2] = P800 plasma; details: human, RT (25 ± 1°C), up to 96 hours
[3] = system: purified DPP-IV enzyme; experiment: 50 mM HEPES buffer (pH7.5); details: 37°C, up to 48 hours
[4] = EDTA plasma; details: human, RT (25 ± 1°C), up to 96 hours
[5] = conventional serum sample; details: human, RT (25 ± 1°C), up to 96 hours
[6] = citrate-plasma; details: human, RT (25 ± 1°C)
[7] = heparin-plasma; details: human, RT (25 ± 1°C)

CC[C@H](C)[C@H](NC(=O)[C@H](CO)NC(=O)[C@H](Cc1ccc(O)cc1)NC(=O)[C@H](CC(=O)O)NC(=O)[C@H](CO)NC(=O)[C@@H](NC(=O)[C@H](Cc1ccccc1)NC(=O)[C@@H](NC(=O)CNC(=O)[C@H](CCC(=O)O)NC(=O)[C@H](C)NC(=O)[C@@H](N)Cc1ccc(O)cc1)[C@@H](C)O)[C@@H](C)CC)C(=O)N[C@@H](C)C(=O)N[C@@H](CCSC)C(=O)N[C@@H](CC(=O)O)C(=O)N[C@@H](CCCCN)C(=O)N[C@H](C(=O)N[C@@H](Cc1c[nH]cn1)C(=O)N[C@@H](CCC(N)=O)C(=O)N[C@@H](CCC(N)=O)C(=O)N[C@@H](CC(=O)O)C(=O)N[C@@H](Cc1ccccc1)C(=O)N[C@H](C(=O)N[C@@H](CC(N)=O)C(=O)N[C@@H](Cc1c[nH]c2ccccc12)C(=O)N[C@@H](CC(C)C)C(=O)N[C@@H](CC(C)C)C(=O)N[C@@H](C)C(=O)N[C@@H](CCC(N)=O)C(=O)N[C@@H](CCCCN)C(=O)NCC(=O)N[C@@H](CCCCN)C(=O)N[C@@H](CCCCN)C(=O)N[C@@H](CC(N)=O)C(=O)N[C@@H](CC(=O)O)C(=O)N[C@@H](Cc1c[nH]c2ccccc12)C(=O)N[C@@H](CCCCN)C(=O)N[C@@H](Cc1c[nH]cn1)C(=O)N[C@@H](CC(N)=O)C(=O)N[C@H](C(=O)N[C@H](C(=O)N[C@@H](CCC(N)=O)C(=O)O)[C@@H](C)O)[C@@H](C)CC)C(C)C)[C@@H](C)CC [GIP(1–42), glucose-dependent insulinotropic polypeptide]
half-life in circulation [1]: ~5 min

HSQGTFTSDYSKYLDSRRAQDFVQWLMNTKRNKNNIA
not cleaved [2]: fragments not detectable during 3-day incubation; full-length OXM stabilized for more than three days

HS/QGTFTSDYSKYLDSRRAQDFVQWLMNTKRNRNNIA
cleaved bond [3]: S2-Q3, first_seen, 24 hours; also recorded: G4-T5, 48 h

YA/EGTFISDYSIAMDKIHQQDFVNWLLAQKGKKNDWKHNITQ
cleaved bond [4]: A2-E3, major, two hours | not cleaved [2]: without any GIP degradation fragments detectable during 4-day incubation at RT; t½ > 96 hours | cleaved bond [5]: A2-E3, major

HA/EGTFTSDVSSYLEGQAAKEFIAWLVKGR-NH2
cleaved bond [4]: A8-E9, major, 30 minutes | cleaved bond [2]: A8-E9, minor, after 3-day incubation | cleaved bond [6]: A8-E9, major, 30 minutes | cleaved bond [7]: A8-E9, major | cleaved bond [5]: A8-E9, major, 30 minutes | not cleaved [5]: no G36A-1C

HA/EGTFTSDVSSYLEGQAAKEFIAWLVKGR-OH
cleaved bond [4]: A8-E9, 30 minutes | cleaved bond [5]: A8-E9, 30 minutes; also recorded: G35-R36, 30 minutes

HA/EGTFTSDVSSYLEGQAAKEFIAWLVKGRG
cleaved bond [4]: A8-E9, major, 1h | cleaved bond [2]: A8-E9, minor, after 3-day incubation | cleaved bond [6]: A8-E9, major | cleaved bond [7]: A8-E9, major

glucagon-like peptide 1 [GLP-1]
half-life in circulation [1]: approximately 2 minutes
